Experimental data: patent US4379917A, “6"-(Substituted)-apramycin antibiotic derivatives and intermediates and starting materials therefor” (Eli Lilly and Company, priority 1981, dated 1983)
Values after ≈ are worked out from the molar mass of the structure shown. Read-outs that look alike come from different tables or passages of the source.

Tests used:
[1] = tested on: Pseudomonas aeruginosa X48; test: MIC by standard agar dilution test; format: cell-based
[2] = tested on: Pseudomonas aeruginosa X528; test: MIC by standard agar dilution test; format: cell-based
[3] = tested on: Pseudomonas aeruginosa X239; test: MIC by standard agar dilution test; format: cell-based
[4] = tested on: Pseudomonas aeruginosa Ps9; test: MIC by standard agar dilution test; format: cell-based
[5] = tested on: Pseudomonas aeruginosa Ps15; test: MIC by standard agar dilution test; format: cell-based
[6] = tested on: Pseudomonas aeruginosa Ps25; test: MIC by standard agar dilution test; format: cell-based
[7] = tested on: Pseudomonas aeruginosa 4276; test: MIC by standard agar dilution test; format: cell-based; settings: Pseudomonas aeruginosa, 4276; Table 1; agar dilution; read-out: Minimum Inhibitory Concentration
[8] = tested on: Pseudomonas aeruginosa PI23; test: MIC by standard agar dilution test; format: cell-based
[9] = tested on: Pseudomonas aeruginosa SF-2; test: MIC by standard agar dilution test; format: cell-based; settings: SF2, Table 1, agar dilution, read-out: Minimum Inhibitory Concentration
Serratia marcescens SE2 = test: MIC by standard agar dilution test; format: cell-based
Serratia marcescens X99 = test: MIC by standard agar dilution test; format: cell-based; settings: X99, read-out: Minimum Inhibitory Concentration
Serratia marcescens SE3 = test: MIC by standard agar dilution test; format: cell-based
[10] = tested on: Enterobacter aerogenes EB6; test: MIC by standard agar dilution test; format: cell-based; settings: Klebsiella aerogenes, EB6, read-out: Minimum Inhibitory Concentration
[11] = tested on: Enterobacter cloacae EN453; test: MIC by standard agar dilution test; format: cell-based
[12] = tested on: Enterobacter cloacae EB24; test: MIC by standard agar dilution test; format: cell-based; settings: EB24, read-out: Minimum Inhibitory Concentration
Proteus morganii PR1 = test: MIC by standard agar dilution test; format: cell-based; settings: Morganella morganii
Proteus morganii PR2 = test: MIC by standard agar dilution test; format: cell-based; settings: Morganella morganii, PR2; Table 1; agar dilution; read-out: Minimum Inhibitory Concentration
Proteus inconstans PV25 = test: MIC by standard agar dilution test; format: cell-based; settings: Providencia alcalifaciens
[13] = tested on: Klebsiella pneumoniae KL2; test: MIC by standard agar dilution test; format: cell-based
[14] = tested on: Enterobacter aerogenes EB17; test: MIC by standard agar dilution test; format: cell-based; settings: Klebsiella aerogenes, EB17, read-out: Minimum Inhibitory Concentration
Proteus morganii PR15 = test: MIC by standard agar dilution test; format: cell-based; settings: Morganella morganii, PR15; Table II; agar dilution; read-out: Minimum Inhibitory Concentration
[15] = tested on: Klebsiella pneumoniae KL14; test: MIC by standard agar dilution test; format: cell-based; settings: KL14, read-out: Minimum Inhibitory Concentration
[16] = tested on: Staphylococcus aureus 3055; test: MIC by standard agar dilution test; format: cell-based; settings: Staphylococcus aureus, 3055, read-out: Minimum Inhibitory Concentration
Erwinia amylovora = test: MIC by standard agar dilution test; format: cell-based; settings: Table II, read-out: Minimum Inhibitory Concentration
Excerpt: (§1) The antibacterial activity of the antibiotic compounds of this invention is illustrated by the following in vitro and in vivo test data obtained with representative compounds. In Tables I and II the minimum inhibitory concentration (MIC) for representative compounds against a wide range of gram-positive and gram-negative bacteria is presented. The MIC values were obtained by the standard agar dilution test.

[17] = tested on: Staphylococcus aureus 3074; test: MIC by standard agar dilution test; format: cell-based; settings: Table II, read-out: Minimum Inhibitory Concentration
Excerpt: as §1

[18] = tested on: Streptococcus faecalis X66; test: MIC by standard agar dilution test; format: cell-based; settings: Enterococcus faecalis, X66; Table II; agar dilution; read-out: Minimum Inhibitory Concentration
Salmonella typhosa SA12 = test: MIC by standard agar dilution test; format: cell-based; settings: Salmonella enterica, read-out: Minimum Inhibitory Concentration
Escherichia coli EC14 = test: MIC by standard agar dilution test; format: cell-based
[19] = tested on: Citrobacter freundii CF17; test: MIC by standard agar dilution test; format: cell-based
[20] = tested on: Bordetella bronchiseptica 16; test: MIC by standard agar dilution test; format: cell-based
Salmonella typhimurium = test: MIC by standard agar dilution test; format: cell-based; settings: Salmonella enterica, read-out: Minimum Inhibitory Concentration
[21] = tested on: Pseudomonas solanacearum X185; test: microbe, parasite or virus in culture; format: cell-based; settings: Ralstonia solanacearum, X185, read-out: Minimum Inhibitory Concentration
[22] = tested on: Pseudomonas aeruginosa X239; test: Subcutaneous therapy of Pseudomonas aeruginosa X239 infections in mice; format: in vivo; settings: X239, sc, 2 subcutaneous doses at 1 and 5 hours post infection, dose to protect 50 percent of test animals, read-out: Effective Dose (ED50)
Method: Table III illustrates the effective dose (ED50, effective dose to protect 50 percent of the test animals) for representative compounds of this invention against an experimental bacterial infection in mice. | *mg/kg × 2 subcutaneous doses at 1 and 5 hours post infections The ED50 values were determined as described by W. E. Wick et al., Journal of Bacteriolocy, 81 [No. 2], 233-235 (1961).

[23] = X239, read-out: Minimum Inhibitory Concentration, Table II

## CN[C@@H]1[C@@H](O[C@H]2O[C@H](C)[C@@H](N)[C@H](O)[C@H]2O)O[C@H]2C[C@@H](N)[C@@H](O[C@H]3[C@H](O)[C@@H](O)[C@H](N)C[C@@H]3N)O[C@@H]2[C@@H]1O [Test Compound 4, 6"-Deoxyapramycin]
[1]; X48, read-out: Minimum Inhibitory Concentration
  MIC: 4 µg/mL (≈ 7.64 µM)
[2]; X528, read-out: Minimum Inhibitory Concentration
  MIC: 16 µg/mL (≈ 30.6 µM)
[3]; X239, read-out: Minimum Inhibitory Concentration, Table 1
  MIC: 4 µg/mL (≈ 7.64 µM)
[3]; [23]
  MIC: 2 µg/mL (≈ 3.82 µM)
[4]; PS9, read-out: Minimum Inhibitory Concentration
  MIC: 16 µg/mL (≈ 30.6 µM)
[5]; PS15, read-out: Minimum Inhibitory Concentration
  MIC: 4 µg/mL (≈ 7.64 µM)
[6]; PS25, read-out: Minimum Inhibitory Concentration
  MIC: 4 µg/mL (≈ 7.64 µM)
[7]
  MIC: 8 µg/mL (≈ 15.3 µM)
[8]; PI23, read-out: Minimum Inhibitory Concentration
  MIC: > 128 µg/mL
[9]
  MIC: 8 µg/mL (≈ 15.3 µM)
Serratia marcescens SE2; SE2, read-out: Minimum Inhibitory Concentration
  MIC: 4 µg/mL (≈ 7.64 µM)
Serratia marcescens X99
  MIC: 2 µg/mL (≈ 3.82 µM)
Serratia marcescens SE3; SE3, read-out: Minimum Inhibitory Concentration, Table 1
  MIC: 4 µg/mL (≈ 7.64 µM)
Serratia marcescens SE3; SE3, read-out: Minimum Inhibitory Concentration, Table II
  MIC: 16 µg/mL (≈ 30.6 µM)
[10]
  MIC: 4 µg/mL (≈ 7.64 µM)
[11]; EN453, read-out: Minimum Inhibitory Concentration
  MIC: 4 µg/mL (≈ 7.64 µM)
[12]
  MIC: 4 µg/mL (≈ 7.64 µM)
Proteus morganii PR1; PR1, read-out: Minimum Inhibitory Concentration
  MIC: 4 µg/mL (≈ 7.64 µM)
Proteus morganii PR2
  MIC: 8 µg/mL (≈ 15.3 µM)
Proteus inconstans PV25; PV25, read-out: Minimum Inhibitory Concentration
  MIC: 2 µg/mL (≈ 3.82 µM)
[13]; KL2, read-out: Minimum Inhibitory Concentration
  MIC: 4 µg/mL (≈ 7.64 µM)
[14]
  MIC: 4 µg/mL (≈ 7.64 µM)
Proteus morganii PR15
  MIC: 8 µg/mL (≈ 15.3 µM)
[15]
  MIC: 4 µg/mL (≈ 7.64 µM)
[16]
  MIC: 2 µg/mL (≈ 3.82 µM)
Erwinia amylovora
  MIC: 2 µg/mL (≈ 3.82 µM)
[17]
  MIC: 1 µg/mL (≈ 1.91 µM)
[18]
  MIC: 8 µg/mL (≈ 15.3 µM)
Salmonella typhosa SA12
  MIC: 4 µg/mL (≈ 7.64 µM)
Escherichia coli EC14; EC14, read-out: Minimum Inhibitory Concentration
  MIC: 16 µg/mL (≈ 30.6 µM)
[19]; CF17, Table II, agar dilution, read-out: Minimum Inhibitory Concentration
  MIC: 8 µg/mL (≈ 15.3 µM)
[20]; Bordetella bronchiseptica, 16, read-out: Minimum Inhibitory Concentration
  MIC: 16 µg/mL (≈ 30.6 µM)
Salmonella typhimurium
  MIC: 16 µg/mL (≈ 30.6 µM)
[21]
  MIC: 4 µg/mL (≈ 7.64 µM)
[22]
  ED50: 10.9 mg/kg

## CN[C@@H]1[C@@H](O[C@H]2O[C@H](COS(C)(=O)=O)[C@@H](N)[C@H](O)[C@H]2O)O[C@H]2C[C@@H](N)[C@@H](O[C@H]3[C@H](O)[C@@H](O)[C@H](N)C[C@@H]3N)O[C@@H]2[C@@H]1O [Test Compound 1, 6"-O-(Methanesulfonyl)apramycin]
[1]; X48, Table 1, agar dilution, read-out: Minimum Inhibitory Concentration
  MIC: 128 µg/mL (≈ 207 µM)
[2]; X528, Table 1, agar dilution, read-out: Minimum Inhibitory Concentration
  MIC: 128 µg/mL (≈ 207 µM)
[3]; X239, Table 1, read-out: Minimum Inhibitory Concentration
  MIC: 128 µg/mL (≈ 207 µM)
[3]; [23]
  MIC: 4 µg/mL (≈ 6.48 µM)
[4]; PS9, Table 1, agar dilution, read-out: Minimum Inhibitory Concentration
  MIC: > 128 µg/mL
[5]; PS15, Table 1, agar dilution, read-out: Minimum Inhibitory Concentration
  MIC: 128 µg/mL (≈ 207 µM)
[6]; PS25, Table 1, agar dilution, read-out: Minimum Inhibitory Concentration
  MIC: 64 µg/mL (≈ 104 µM)
[7]
  MIC: > 128 µg/mL
[8]; PI23, Table 1, agar dilution, read-out: Minimum Inhibitory Concentration
  MIC: > 128 µg/mL
[9]
  MIC: 128 µg/mL (≈ 207 µM)
Serratia marcescens SE2; SE2, Table 1, agar dilution, read-out: Minimum Inhibitory Concentration
  MIC: 8 µg/mL (≈ 13 µM)
Serratia marcescens X99
  MIC: 4 µg/mL (≈ 6.48 µM)
Serratia marcescens SE3; SE3, Table 1, read-out: Minimum Inhibitory Concentration
  MIC: 8 µg/mL (≈ 13 µM)
Serratia marcescens SE3; SE3, Table II, read-out: Minimum Inhibitory Concentration
  MIC: 16 µg/mL (≈ 25.9 µM)
[10]
  MIC: 4 µg/mL (≈ 6.48 µM)
[11]; EN453, Table 1, agar dilution, read-out: Minimum Inhibitory Concentration
  MIC: 8 µg/mL (≈ 13 µM)
[12]
  MIC: 4 µg/mL (≈ 6.48 µM)
Proteus morganii PR1; PR1, Table 1, agar dilution, read-out: Minimum Inhibitory Concentration
  MIC: 8 µg/mL (≈ 13 µM)
Proteus morganii PR2
  MIC: 32 µg/mL (≈ 51.8 µM)
Proteus inconstans PV25; PV25, Table 1, agar dilution, read-out: Minimum Inhibitory Concentration
  MIC: 8 µg/mL (≈ 13 µM)
[13]; KL2, Table 1, agar dilution, read-out: Minimum Inhibitory Concentration
  MIC: 8 µg/mL (≈ 13 µM)
[14]
  MIC: 4 µg/mL (≈ 6.48 µM)
Proteus morganii PR15
  MIC: 32 µg/mL (≈ 51.8 µM)
[15]
  MIC: 4 µg/mL (≈ 6.48 µM)
[16]
  MIC: 2 µg/mL (≈ 3.24 µM)
[17]
  MIC: 4 µg/mL (≈ 6.48 µM)
[18]
  MIC: 32 µg/mL (≈ 51.8 µM)
Salmonella typhosa SA12
  MIC: 4 µg/mL (≈ 6.48 µM)
Escherichia coli EC14; EC14, Table II, agar dilution, read-out: Minimum Inhibitory Concentration
  MIC: 8 µg/mL (≈ 13 µM)
[19]; CF17, read-out: Minimum Inhibitory Concentration
  MIC: 4 µg/mL (≈ 6.48 µM)
[20]; Bordetella bronchiseptica, 16, Table II, agar dilution, read-out: Minimum Inhibitory Concentration
  MIC: 16 µg/mL (≈ 25.9 µM)
Salmonella typhimurium
  MIC: 4 µg/mL (≈ 6.48 µM)
[21]
  MIC: 1 µg/mL (≈ 1.62 µM)
